{"source": "patent US12685312B2", "about": "“Sulfonamide apyrase inhibitors” (Texas Crop Science, Inc., priority 2022, dated 2026)", "data": [{"tested_on": "apyrase", "assay": "Screen for apyrase inhibitors (Method 1, in vitro phosphate-release absorbance assay)", "type": "biochemical", "details": "inhibitor conc at 1 mM stock, 1 hr room temperature, absorbance 630 nm; rounded average of two assay results", "method_in_brief": "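Phosphate-release colorimetric assay (Windsor method) in 60 mM Hepes, 3 mM MgCl2, 3 mM CaCl2, 3 mM ATP, pH 6.5, with compound or DMSO control added. Released phosphate developed with ammonium molybdate and ascorbic acid/TCA, then stopped with citrate/acetic acid.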", "units": {"% Inhibition of Apyrase": "%"}, "values": [{"smiles": "COc1ccc(NC(=O)c2cccc(S(=O)(=O)N3CCc4ccccc43)c2)cc1", "note": "[I-454, 3-(indolin-1-ylsulfonyl)-N-(4-methoxyphenyl)benzamide]", "% Inhibition of Apyrase": 60}, {"smiles": "Cc1c(Cl)cccc1NC(=O)c1cccc(S(=O)(=O)N2CCc3ccccc32)c1", "note": "[I-455, N-(3-chloro-2-methylphenyl)-3-(indolin-1-ylsulfonyl)benzamide]", "% Inhibition of Apyrase": 60}, {"smiles": "NC(=O)c1cccc(NC(=O)c2cccc(S(=O)(=O)N3CCc4ccccc43)c2)c1", "note": "[I-456, N-(3-carbamoylphenyl)-3-(indolin-1-ylsulfonyl)benzamide]", "% Inhibition of Apyrase": 60}, {"smiles": "O=C(c1cccc(S(=O)(=O)N(Cc2ccccc2)c2cccc(C(F)(F)F)c2)c1)N1CCc2ccccc21", "note": "[I-457, N-benzyl-3-(indoline-1-carbonyl)-N-(3-(trifluoromethyl)phenyl)benzenesulfonamide]", "% Inhibition of Apyrase": 60}, {"smiles": "CC1Cc2ccccc2N1S(=O)(=O)c1cccc(C(=O)Nc2cccc(S(N)(=O)=O)c2)c1", "note": "(stereo not drawn) [I-458, 3-((2-methylindolin-1-yl)sulfonyl)-N-(3-sulfamoylphenyl)benzamide]", "% Inhibition of Apyrase": 60}, {"smiles": "Cc1ccc(NS(=O)(=O)c2ccc(Cl)c(C(=O)N3CCc4ccccc43)c2)cc1C", "note": "[I-459, 4-chloro-N-(3,4-dimethylphenyl)-3-(indoline-1-carbonyl)benzenesulfonamide]", "% Inhibition of Apyrase": 60}, {"smiles": "COc1ccc(NS(=O)(=O)c2cccc(C(=O)Nc3ccc(OC(F)F)cc3)c2)cc1", "note": "[I-460, N-(4-(difluoromethoxy)phenyl)-3-(N-(4-methoxyphenyl)sulfamoyl)benzamide]", "% Inhibition of Apyrase": 60}, {"smiles": "COc1ccccc1NS(=O)(=O)c1cccc(C(=O)Nc2c(C)nc(O)nc2O)c1", "note": "[I-461, N-(2,4-dihydroxy-6-methylpyrimidin-5-yl)-3-(N-(2-methoxyphenyl)sulfamoyl)benzamide]", "% Inhibition of Apyrase": 59}, {"smiles": "N#Cc1cccc(NC(=O)c2ccc(Cl)c(S(=O)(=O)N3CCc4ccccc43)c2)c1", "note": "[I-462, 4-chloro-N-(3-cyanophenyl)-3-(indolin-1-ylsulfonyl)benzamide]", "% Inhibition of Apyrase": 59}, {"smiles": "O=C(Nc1ccccc1OC(F)F)c1ccc(Cl)c(S(=O)(=O)N2CCc3ccccc32)c1", "note": "[I-463, 4-chloro-N-(2-(difluoromethoxy)phenyl)-3-(indolin-1-ylsulfonyl)benzamide]", "% Inhibition of Apyrase": 59}, {"smiles": "CC1Cc2ccccc2N1C(=O)c1cccc(S(=O)(=O)N(C)c2cccc(Cl)c2)c1", "note": "(stereo not drawn) [I-464, N-(3-chlorophenyl)-N-methyl-3-(2-methylindoline-1-carbonyl)benzenesulfonamide]", "% Inhibition of Apyrase": 59}, {"smiles": "CC1Cc2ccccc2N1S(=O)(=O)c1cccc(C(=O)N2CCCc3ccccc32)c1", "note": "(stereo not drawn) [I-465, (3,4-dihydroquinolin-1(2H)-yl)(3-((2-methylindolin-1-yl)sulfonyl)phenyl)methanone]", "% Inhibition of Apyrase": 59}, {"smiles": "Cc1ccccc1NC(=O)c1cccc(S(=O)(=O)N2c3ccccc3CC2C)c1", "note": "(stereo not drawn) [I-466, 3-((2-methylindolin-1-yl)sulfonyl)-N-(o-tolyl)benzamide]", "% Inhibition of Apyrase": 59}, {"smiles": "COc1ccccc1NC(=O)c1cccc(S(=O)(=O)N2CCc3ccccc32)c1", "note": "[I-467, 3-(indolin-1-ylsulfonyl)-N-(2-methoxyphenyl)benzamide]", "% Inhibition of Apyrase": 59}, {"smiles": "CSc1cccc(NC(=O)c2cccc(S(=O)(=O)N3c4ccccc4CC3C)c2)c1", "note": "(stereo not drawn) [I-468, 3-((2-methylindolin-1-yl)sulfonyl)-N-(3-(methylthio)phenyl)benzamide]", "% Inhibition of Apyrase": 59}, {"smiles": "CC1Cc2ccccc2N1S(=O)(=O)c1cccc(C(=O)Nc2cc(F)ccc2F)c1", "note": "(stereo not drawn) [I-469, N-(2,5-difluorophenyl)-3-((2-methylindolin-1-yl)sulfonyl)benzamide]", "% Inhibition of Apyrase": 59}, {"smiles": "O=C(Nc1ccc(Br)cc1F)c1cccc(S(=O)(=O)N2CCc3ccccc32)c1", "note": "[I-470, N-(4-bromo-2-fluorophenyl)-3-(indolin-1-ylsulfonyl)benzamide]", "% Inhibition of Apyrase": 59}, {"smiles": "COc1ccc(S(=O)(=O)N2CCc3ccccc32)cc1C(=O)Nc1ccc(Br)c(C)c1", "note": "[I-471, N-(4-bromo-3-methylphenyl)-5-(indolin-1-ylsulfonyl)-2-methoxybenzamide]", "% Inhibition of Apyrase": 59}, {"smiles": "O=C(Nc1ccc(F)c(F)c1)c1cccc(S(=O)(=O)N2CCc3ccccc32)c1", "note": "[I-472, N-(3,4-difluorophenyl)-3-(indolin-1-ylsulfonyl)benzamide]", "% Inhibition of Apyrase": 59}, {"smiles": "COc1ccc(C)cc1NC(=O)c1cccc(S(=O)(=O)N2CCc3ccccc32)c1", "note": "[I-473, 3-(indolin-1-ylsulfonyl)-N-(2-methoxy-5-methylphenyl)benzamide]", "% Inhibition of Apyrase": 59}, {"smiles": "O=C(c1cc(S(=O)(=O)Nc2cccc(C(F)(F)F)c2)ccc1Cl)N1CCCc2ccccc21", "note": "[I-474, 4-chloro-3-(1,2,3,4-tetrahydroquinoline-1-carbonyl)-N-(3-(trifluoromethyl)phenyl)benzenesulfonamide]", "% Inhibition of Apyrase": 59}, {"smiles": "O=C(c1cccc(S(=O)(=O)Nc2cccc(C(F)(F)F)c2)c1)N1CCc2ccccc21", "note": "[I-475, 3-(indoline-1-carbonyl)-N-(3-(trifluoromethyl)phenyl)benzenesulfonamide]", "% Inhibition of Apyrase": 59}, {"smiles": "CC1Cc2ccccc2N1S(=O)(=O)c1cccc(C(=O)Nc2ccccc2OC(F)(F)F)c1", "note": "(stereo not drawn) [I-476, 3-((2-methylindolin-1-yl)sulfonyl)-N-(2-(trifluoromethoxy)phenyl)benzamide]", "% Inhibition of Apyrase": 58}, {"smiles": "CN(c1ccccc1)S(=O)(=O)c1cc(C(=O)N2CCc3cc([N+](=O)[O-])ccc32)ccc1Cl", "note": "[I-477, 2-chloro-N-methyl-5-(5-nitroindoline-1-carbonyl)-N-phenylbenzenesulfonamide]", "% Inhibition of Apyrase": 58}, {"smiles": "O=C(Nc1ccc(S(=O)(=O)NC2CC2)cc1)c1cccc(S(=O)(=O)N2CCc3ccccc32)c1", "note": "[I-478, N-(4-(N-cyclopropylsulfamoyl)phenyl)-3-(indolin-1-ylsulfonyl)benzamide]", "% Inhibition of Apyrase": 58}, {"smiles": "COc1ccc(N(C)S(=O)(=O)c2cccc(C(=O)Nc3ccc4c(c3)OCO4)c2)cc1", "note": "[I-479, N-(benzo[d][1,3]dioxol-5-yl)-3-(N-(4-methoxyphenyl)-N-methylsulfamoyl)benzamide]", "% Inhibition of Apyrase": 58}, {"smiles": "CC(=O)Nc1ccc(NC(=O)c2cccc(S(=O)(=O)N3CCc4ccccc43)c2)cc1", "note": "[I-480, N-(4-acetamidophenyl)-3-(indolin-1-ylsulfonyl)benzamide]", "% Inhibition of Apyrase": 58}, {"smiles": "Cc1ccc(N(C)S(=O)(=O)c2cccc(C(=O)N3c4ccccc4CC3C)c2)cc1", "note": "(stereo not drawn) [I-481, N-methyl-3-(2-methylindoline-1-carbonyl)-N-(p-tolyl)benzenesulfonamide]", "% Inhibition of Apyrase": 58}, {"smiles": "CN(c1ccccc1)S(=O)(=O)c1cccc(C(=O)N2CCCc3ccccc32)c1", "note": "[I-482, N-methyl-N-phenyl-3-(1,2,3,4-tetrahydroquinoline-1-carbonyl)benzenesulfonamide]", "% Inhibition of Apyrase": 58}, {"smiles": "CC1Cc2ccccc2N1S(=O)(=O)c1cccc(C(=O)Nc2ccc(Oc3ccccc3)cc2)c1", "note": "(stereo not drawn) [I-483, 3-((2-methylindolin-1-yl)sulfonyl)-N-(4-phenoxyphenyl)benzamide]", "% Inhibition of Apyrase": 58}, {"smiles": "CC1Cc2ccccc2N1S(=O)(=O)c1cccc(C(=O)Nc2cccc3cccnc23)c1", "note": "(stereo not drawn) [I-484, 3-((2-methylindolin-1-yl)sulfonyl)-N-(quinolin-8-yl)benzamide]", "% Inhibition of Apyrase": 58}, {"smiles": "O=C(c1cccc(S(=O)(=O)N2CCCc3ccccc32)c1)N1CCc2ccccc21", "note": "[I-485, (3-((3,4-dihydroquinolin-1(2H)-yl)sulfonyl)phenyl)(indolin-1-yl)methanone]", "% Inhibition of Apyrase": 58}, {"smiles": "C=CCN(c1ccc(Cl)cc1)S(=O)(=O)c1ccc(Cl)c(C(=O)N2CCc3ccccc32)c1", "note": "[I-486, N-allyl-4-chloro-N-(4-chlorophenyl)-3-(indoline-1-carbonyl)benzenesulfonamide]", "% Inhibition of Apyrase": 58}, {"smiles": "CC1Cc2ccccc2N1S(=O)(=O)c1cccc(C(=O)Nc2cccc(Oc3ccccc3)c2)c1", "note": "(stereo not drawn) [I-487, 3-((2-methylindolin-1-yl)sulfonyl)-N-(3-phenoxyphenyl)benzamide]", "% Inhibition of Apyrase": 58}, {"smiles": "O=C(Nc1cc(F)ccc1F)c1cccc(S(=O)(=O)N2CCc3ccccc32)c1", "note": "[I-488, N-(2,5-difluorophenyl)-3-(indolin-1-ylsulfonyl)benzamide]", "% Inhibition of Apyrase": 58}, {"smiles": "Cc1cccc(NS(=O)(=O)c2ccc(C)c(C(=O)N3CCCc4ccccc43)c2)c1", "note": "[I-489, 4-methyl-3-(1,2,3,4-tetrahydroquinoline-1-carbonyl)-N-(m-tolyl)benzenesulfonamide]", "% Inhibition of Apyrase": 58}, {"smiles": "O=C(c1cc(S(=O)(=O)Nc2ccc(Cl)cc2)ccc1Cl)N1CCc2ccccc21", "note": "[I-490, 4-chloro-N-(4-chlorophenyl)-3-(indoline-1-carbonyl)benzenesulfonamide]", "% Inhibition of Apyrase": 58}, {"smiles": "Cc1cccc(NS(=O)(=O)c2cccc(C(=O)Nc3ccc(Br)c(C)c3)c2)c1", "note": "[I-491, N-(4-bromo-3-methylphenyl)-3-(N-(m-tolyl)sulfamoyl)benzamide]", "% Inhibition of Apyrase": 58}, {"smiles": "O=C(Nc1ccccc1N1CCCC1)c1cccc(S(=O)(=O)N2CCc3ccccc32)c1", "note": "[I-492, 3-(indolin-1-ylsulfonyl)-N-(2-(pyrrolidin-1-yl)phenyl)benzamide]", "% Inhibition of Apyrase": 58}, {"smiles": "Cc1cc(F)c2c(c1)CCCN2C(=O)c1cccc(S(=O)(=O)N2CCc3ccccc32)c1", "note": "[I-493, (8-fluoro-6-methyl-3,4-dihydroquinolin-1(2H)-yl)(3-(indolin-1-ylsulfonyl)phenyl)methanone]", "% Inhibition of Apyrase": 58}, {"smiles": "CC1Cc2ccccc2N1S(=O)(=O)c1cccc(C(=O)N2CCc3cccc(F)c32)c1", "note": "(stereo not drawn) [I-494, (7-fluoroindolin-1-yl)(3-((2-methylindolin-1-yl)sulfonyl)phenyl)methanone]", "% Inhibition of Apyrase": 57}, {"smiles": "O=C(c1ccc(Cl)c(S(=O)(=O)N2CCc3ccccc32)c1)N1CCc2cc([N+](=O)[O-])ccc21", "note": "[I-495, (4-chloro-3-(indolin-1-ylsulfonyl)phenyl)(5-nitroindolin-1-yl)methanone]", "% Inhibition of Apyrase": 57}]}]}
